Key:
Format in all cases: cell-based
[1] = system: P-388 (suspension culture of a lymphoid neoplasm from DBA/2 mouse); assay: Cytotoxic activity screening, P-388 cells; conditions: three days of incubation, approximate IC50
Description: (§1) Cell Cultures. Cells were maintained in logarithmic phase of growth in Eagle's Minimum Essential Medium, with Earle's Balanced Salts, with 2.0 mM L-glutamine, with non-essential amino acids, without sodium bicarbonate (EMEM/neaa); supplemented with 10% Fetal Calf Serum (FCS), 10^−2 M sodium bicarbonate and 0.1 g/l penicillin-G+streptomycin sulfate.
(§2) A simple screening procedure has been carried out to determine and compare the antitumour activity of these compounds, using an adapted form of the method described by Bergeron et al (1984). The tumour cell line employed have been P-388 (suspension culture of a lymphoid neoplasm from DBA/2 mouse), A-549 (monolayer culture of a human lung carcinoma), HT-29 (monolayer culture of a human colon carcinoma) and MEL-28 (monolayer culture of a human melanoma).
P-388 cell were seeded into 16 mm wells at 1×10^4 cells per well in 1 ml aliquots of MEM 5FCS containing the indicated concentration of drug. A separate set of cultures without drug was seeded as control growth to ensure that cells remained in exponential phase of growth. All determinations were carried out in duplicate.

[2] = system: A-549 (monolayer culture of a human lung carcinoma); assay: Cytotoxic activity screening, A-549 cells; conditions: three days of incubation, Crystal Violet, approximate IC50
Description: as §1, §2
(§3) A-549, HT-29 and MEL-28 were seeded into 16 mm wells at 2×10^4 cells per well in 1 ml aliquots of MEM 10FCS containing the indicated concentration of drug. A separate set of cultures without drug was seeded as control growth to ensure that cells remained in exponential phase of growth. All determinations were carried out in duplicate. After three days of incubation at 37° C., 10% CO2 in a 98% humid atmosphere, the wells were stained with 0.1% Crystal Violet. An approximately IC50 was determined by comparing the growth in wells with drug to the growth in wells control.

[3] = system: HT-29 (monolayer culture of a human colon carcinoma); assay: Cytotoxic activity screening, HT-29 cells; conditions: three days of incubation, Crystal Violet, approximate IC50
Description: as §1, §2, §3

[4] = system: MEL-28 (monolayer culture of a human melanoma); assay: Cytotoxic activity screening, MEL-28 cells; conditions: SK-MEL-28, 72 h, three days of incubation, Crystal Violet, approximate IC50
Description: as §1, §2, §3

DU-145 = assay: Cytotoxic activity screening, DU-145 cells
CV-1 = assay: Cytotoxic activity screening, CV-1 cells; conditions: Cercopithecidae
[5] = Homo sapiens, DU-145, DU-145 cells

SMILES	IC50 ([1]; Mus musculus, P388, 72 h) [µM]	IC50 ([2]; Homo sapiens, A549, 72 h) [µM]	IC50 ([3]; Homo sapiens, HT-29, 72 h) [µM]	IC50 [4] [µM]	IC50 (DU-145; [5]) [µM]	IC50 (CV-1) [µM]	IC50 [1] [µM]	IC50 [2] [µM]	IC50 [3] [µM]	IC50 (DU-145; DU-145 cells) [µM]
COc1c(C)cc2c(c1O)[C@@H]1C3Cc4c(O)c(C)c5c(c4[C@H](CNC(=O)[C@H](C)N)N3[C@@H](C#N)[C@H](C2)N1C)OCO5 (some centres unmarked)	0.18	0.9	0.18	0.8	0.9					
COc1c(C)cc2c(c1O)[C@@H]1C3Cc4c(OC(C)=O)c(C)c5c(c4[C@H](CNC(=O)[C@H](C)NC(=O)C(F)(F)F)N3[C@@H](O)[C@H](C2)N1C)OCO5 (some centres unmarked)	0.0001	0.0001	0.0001	0.0001	0.0001					
COc1c(C)cc2c(c1O)[C@@H]1C3Cc4c(OC(C)=O)c(C)c5c(c4[C@H](CNC(=O)/C=C/c4cccc(C(F)(F)F)c4)N3[C@@H](O)[C@H](C2)N1C)OCO5 (some centres unmarked)	0.0001	0.0001	0.0001	0.0001	0.0001					
C=CCOc1c(C)c2c(c3c1CC1[C@H]4c5c(cc(C)c(OC)c5OCOC)C[C@@H]([C@H](C#N)N1[C@H]3CN)N4C)OCO2 (some centres unmarked) [drawing 80]	0.18					1.8				
COCOc1c(OC)c(C)cc2c1[C@@H]1C3Cc4c(OC(C)=O)c(C)c5c(c4[C@H](CNC(C)=O)N3[C@@H](C#N)[C@H](C2)N1C)OCO5 (some centres unmarked)	0.016	0.016	0.016	0.016	0.016					
COc1c(C)cc2c(c1O)[C@@H]1C3Cc4c(OC(C)=O)c(C)c5c(c4[C@H](CN)N3[C@@H](C#N)[C@H](C2)N1C)OCO5 (some centres unmarked)	0.01	0.01	0.01	0.01	0.01					
C=CCOc1c(C)c2c(c3c1CC1[C@H]4c5c(cc(C)c(OC)c5O)C[C@@H]([C@H](C#N)N1[C@H]3CNC(=O)OCC(Cl)(Cl)Cl)N4C)OCO2 (some centres unmarked)					0.014	0.014				
COC1=C(C)C(=O)C2=C(C1=O)[C@H](CNC(=O)C(C)N=CSNc1ccccc1)N1C(C2)[C@H]2c3c(cc(C)c(OC)c3O)C[C@@H]([C@@H]1C#N)N2C (some centres unmarked)	0.015	0.015	0.015	0.015		0.018				
COc1c(C)cc2c(c1O)[C@@H]1C3Cc4c(OC(C)=O)c(C)c5c(c4[C@H](CNC(=O)[C@H](C)NC(=O)C(F)(F)F)N3[C@@H](C#N)[C@H](C2)N1C)OCO5 (some centres unmarked)	0.0001	0.0001	0.0001	0.0001	0.0001					
COCOc1c(OC)c(C)cc2c1[C@@H]1C3CC4=C(C(=O)C(OC)=C(C)C4=O)[C@H](CNC(C)=O)N3[C@@H](C#N)[C@H](C2)N1C (some centres unmarked)						0.22				
C=CCOc1c(C)c2c(c3c1CC1[C@H]4c5c(cc(C)c(OC)c5OCOC)C[C@@H]([C@H](C#N)N1[C@H]3CN)N4C)OCO2 (some centres unmarked) [drawing 81]				0.2			0.2	0.2	0.2	0.2
COc1c(C)cc2c(c1O)[C@@H]1C3Cc4c(O)c(C)c5c(c4[C@H](CNC(=O)[C@H](C)NC(=S)Nc4ccccc4)N3[C@@H](C#N)[C@H](C2)N1C)OCO5 (some centres unmarked)	0.14	0.14	0.14	0.14	0.14					
COCOc1c(OC)c(C)cc2c1[C@@H]1C3Cc4c(O)c(C)c5c(c4[C@H](CNC(C)=O)N3[C@@H](C#N)[C@H](C2)N1C)OCO5 (some centres unmarked)	> 1.77	> 1.77	> 1.77	> 1.77	> 1.77					
C=CCOc1c(C)c2c(c3c1CC1[C@H]4c5c(cc(C)c(OC)c5OCOC)C[C@@H]([C@H](C#N)N1[C@H]3CNC(C)=O)N4C)OCO2 (some centres unmarked)	> 1.65	> 1.65	> 1.65	> 1.65	> 1.65					
C=CCOc1c(C)c2c(c3c1CC1[C@H]4c5c(cc(C)c(OC)c5O)C[C@@H]([C@H](C#N)N1[C@H]3CNC(=O)[C@H](C)NC(=O)C(F)(F)F)N4C)OCO2 (some centres unmarked)	0.001	0.001	0.001	0.001	0.001					
